In patent publication US5189212A, “Triarylethylene carboxylic acids with estrogenic activity” (University of Georgia Research Foundation, Inc., priority 1990, dated 1993):
Entries after “also recorded” stand apart in the source; their conditions may differ.

Key:
[1] = system: UDP glucuronyl transferase; conditions: rat, microsomes, 0.5 h
[2] = system: UDP glucuronyl transferase; assay: Rat liver microsomal glucuronidation; conditions: for Vmax: detergent-activated rat liver microsomes, 37° C., 30 min, average of two to three experiments; for substrate for UDP glucuronyl transferase: rat liver microsomes, in vitro
estrogen receptor = target: T1, estrogen receptor (Rattus norvegicus, UniProt P06211); assay: Estrogen receptor affinity: competition with [3H]estradiol binding in rat uterine cytosol; conditions: for estrogen receptor affinity relative to estradiol (affinity=100): estradiol = 100
T1 construct: Uteri from Sprague-Dawley rats (200-250g) are homogenized; from tissue; host or cells: rat uterus, 100000g supernatant (cytosol), Sprague-Dawley
T1 sequence (P06211 1-600): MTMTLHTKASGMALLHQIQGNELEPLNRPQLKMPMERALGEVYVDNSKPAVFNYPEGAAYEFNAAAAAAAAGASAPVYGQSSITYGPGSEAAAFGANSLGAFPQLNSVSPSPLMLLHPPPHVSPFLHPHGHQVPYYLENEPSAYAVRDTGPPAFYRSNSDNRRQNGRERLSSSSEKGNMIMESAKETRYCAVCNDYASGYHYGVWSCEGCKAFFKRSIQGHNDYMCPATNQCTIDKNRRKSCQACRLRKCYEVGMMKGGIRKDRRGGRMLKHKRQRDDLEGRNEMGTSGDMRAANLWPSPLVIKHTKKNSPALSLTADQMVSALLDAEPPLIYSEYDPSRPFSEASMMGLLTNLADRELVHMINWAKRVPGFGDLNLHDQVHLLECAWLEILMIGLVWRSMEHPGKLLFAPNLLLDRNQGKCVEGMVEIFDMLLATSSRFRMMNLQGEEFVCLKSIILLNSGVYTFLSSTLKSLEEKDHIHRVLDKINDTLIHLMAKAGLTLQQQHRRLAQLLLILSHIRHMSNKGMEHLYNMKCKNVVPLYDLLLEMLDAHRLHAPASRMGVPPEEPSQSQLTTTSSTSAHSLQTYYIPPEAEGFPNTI
Experimental: The estrogen receptor affinity of the triarylethylenes of Formula I can be measured according to the method of Ruenitz, et.al., J. Med. Chem., 25:1056, (1982).
[^3 H]Estradiol (58 Ci/mmol) can be obtained from Amersham Corp., and its radiochemical purity checked by TLC. Uteri from Sprague-Dawley rats (200-250g) are homogenized (1 uterus/2 mL) in ice-cold 10 mM Tris buffer, pH 7.4, that contains 1.5 mM EDTA and 3 mM sodium azide (TEA buffer). The homogenate is centrifuged at 100000g for 1 hour at 4° C. Incubation mixtures should contain 200-μμL aliquots of the supernatant, and 10 μL of a solution of 1.1×10^-7 M [^3 H]estradiol in dimethylacetamide, and 10 μL unlabeled competitor in dimethylacetamide. Ten concentrations of competitor are used ranging from 1×10^-9 to 5×10^-5 M. Control incubations should contain 10 μL of solvent alone. Nonspeoifio binding is determined in similarly prepared incubations that contain 1×10^-5 M estradiol. Incubations should be performed in triplicate, in 5-mL polypropylene centrifuge tubes, at 2°- 4° C. for 4 hours. Then a suspension of 400 μL of dextran-coated charcoal [0.1% dextran (Sigma no. D-1390), 1% acid-washed Norit A in TEA buffer]is added, and the incubation continues for 15 minutes at 2°-4° C. Tubes are then centrifuged at 1000g for 10 minutes, and 400-μL aliquots are dissolved in 5 mL of Scintivense (Fisher), Bound [^3 H]estradiol is determined by liquid scintillation spectrometry. Quench corrections are made by the external standard method.
The estrogen receptor affinity of 4-hydroxy tamoxifen acid was measured according to the assay described in Example 2. FIG. 2 is a graph of the effect of increasing concentrations (nM) of 4-HTA (--.quadrature.--), estradiol (--O--), and TA (-- --) on the binding of [^3 H]estradiol in uterine cytosol from immature rats. Specifically bound ^3 H from [^3 H]estradiol is plotted as a percentage of that bound in control incubations in the absence of 4-HTA, estradiol, or TA. Estradiol and tamoxifen, the non-hydroxylated analog of 4-HTA, were used as standards.

MCF7 breast cancer cells = assay: Reversal of the inhibitory effect of tamoxifen on MCF 7 cell growth; assay type: cell-based, human; conditions: 1 μM tamoxifen, FIG. 4
Experimental: Cells were grown as summarized in Example 4 and tamoxifen was added to flasks as a solution in DMSO […], as were increasing concentrations of TA or 4-HTA.

MCF 7 cells = assay: Stimulation of MCF 7 cell proliferation in estrogen free medium; assay type: cell-based, human; conditions: nine days, FIG. 5
Experimental: Cells were conditioned as described in Example 2, and then withdrawn from estrogen stimulation and incubated with phenol red free medium prepared with charcoal-stripped fetal calf serum. After five days, medium was changed and 4-HTA or estradiol were added as described in Example 2. After nine days, cell numbers were determined.
Each point is the average of 3-6 determinations. […] These findings indicate that 4-HTA is a pure estrogen with no residual estrogen antagonist activity.

[3] = Distribution and elimination of TA and 4-HTA after intraperitoneal [14C]TAM in immature female rats; assay type: in vivo, rat; conditions: for Percent of Dose Present as: Total 14C: i.p. [14C]TAM, rat, values ±5%
Experimental: Animals and Dosing. Female Sprague-Dawley rats, 45-55 grams each, were maintained on a normal laboratory diet and were divided into groups of four to six per experiment. […] This solution was prepared by dissolving the drug in 10 ml of 1% citric acid in N,N-dimethylacetamide and diluting the solution with 0.2 ml of 1.15% aqueous KCl just before use. Animals were housed in polycarbonate metabolism cages equipped for separate collection of urine and feces.
Processing of Biological Samples. At 24 and 48 hours after dosing, animals were killed by decapitation. Uteri and livers were removed and weights were recorded. Pooled uteri, and livers were homogenized in 10 volumes of methanol. Each homogenate was centrifuged at 400×g for 10 min. Triplicate 1.0 ml aliquots of supernatants were counted for radioactivity in 8 ml of Ecoscint (National Diagnostics, Somerville, N.J.). Collected urine was lyophilized. The residue was sonicated in methanol, and the mixture was filtered and the solid residue was washed with methanol to make the final volume equal to the original urine volume. This procedure removed endogenous polar materials with no loss of radioactivity. Feces collected 24 and 48 hr after dosing were homogenized in 10 volumes of methanol. The homogenate was centrifuged and analyzed for radioactivity as described above.
Extraction and Analysis. Unlabelled TA and 4-HTA […] were added as standards to methanol extracts of tissues, urine, and feces. A third standard, TA glyOH, was added only to the urine extract. Each solution was then concentrated under a stream of N2. To each residue was added 0.5 ml of 1% aqueous NaOH. The resulting mixture (pH≥11) was extracted serially two times with 1.0 ml portions of ether. Radioactivity present in these extracts was determined. To the aqueous phase was added 0.1 ml of 10% HCl, and the mixture (pH≤1) was extracted as before. Radioactivity was determined in some of these extracts. Otherwise, they were concentrated under a stream of N2. Each residue was dissolved in […] of acetone and the solution was applied to a TLC plate. Developed plates were segmented using the locations of reference compounds under UV light of 254 nm wavelength for guidance. Radioactivity was determined in segments containing reference compounds, and in some cases in all segments from TLC plates.
The specific activity of TA and 4-HTA eluted from developed chromatograms was determined by immersion of the segments containing these metabolites in a solution of 2.8% ammonia in methanol for 12 hr. Radioactivity in aliquots of eluates was determined, and quantities of TA and 4-HTA were estimated from absorbance of solutions at 283 nm using e283 =1.2×10^4 M^-1 cm-^-1 for each compound. Subsequent processing of eluates was conducted according to methods known in the art.

[4] = system: MCF 7 human breast cancer cells; assay: Effect on proliferation of MCF 7 cells grown in the presence of estrogens; conditions: cell numbers after five days, FIG. 3
Experimental: The antiestrogenic effect of the nonsteroidal triarylethylene compounds of Formula I is measured by comparing the growth of MCF7 breast cancer cells in the presence and absence of the compounds, according to the method described below for 4-hydroxy tamoxifen acid.
Cell numbers were determined five days later, after approximately four population doublings in drug free controls. Data shown are expressed as percentages of cell numbers in control flasks and are averages of six estimates from two separate experiments.

[5] = Rat liver microsomal glucuronidation; conditions: rat, liver microsomes

Row | Vmax [2] [nmols/mg-min] | estrogen receptor affinity relative to estradiol (affinity=100) (estrogen receptor) | substrate for UDP glucuronyl transferase [2] | Km at 0.5 h [5] [µM] | Compound | reversal of the growth inhibitory effect of TAM on MCF 7 cells (MCF7 breast cancer cells) | inhibition of growth/proliferation of MCF 7 human breast cancer cells [4] | other results
1 | 16.5 |  | excellent substrate | 73 | CCC(=C(c1ccc(O)cc1)c1ccc(OCC(=O)OC)cc1)c1ccccc1 [Methyl 4-HTA] |  |  | 
2 | 0.0 | 0.01 |  |  | CCC(=C(c1ccccc1)c1ccc(OCC(=O)O)cc1)c1ccccc1 [TA, (E,Z)-4-(1,2-diphenyl-1-butenyl)phenoxyacetic acid] | to a lesser extent | Neither tamoxifen acid nor 4-HTA inhibits the growth | binding to the estrogen receptor (estrogen receptor; FIG. 2): also binds to the estrogen receptor; reversal of the growth inhibitory effect of TAM on MCF 7 cells (MCF7 breast cancer cells; listed as tamoxifen acid): both compounds reverse the growth inhibitory effect
3 | 14.7 |  |  | 54 | CCC(=C(c1ccc(O)cc1)c1ccc(O)cc1)c1ccccc1 [TAM bis-phenol, 1,1-bis-(4-hydroxyphenyl)-2-phenyl-1-butene] |  |  | 

Further lines, the compound ahead of its results:

Row | Compound | Vmax [2] [nmols/mg-min] | estrogen receptor affinity relative to estradiol (affinity=100) (estrogen receptor) | substrate for UDP glucuronyl transferase [2] | Km at 0.5 h [5] [µM] | reversal of the growth inhibitory effect of TAM on MCF 7 cells (MCF7 breast cancer cells) | inhibition of growth/proliferation of MCF 7 human breast cancer cells [4] | other results
4 | 4-hydroxytamoxifen [4-HT] | 7.4 |  |  |  |  |  | Km [1]: 83 µM
5 | CCC(=C(c1ccc(O)cc1)c1ccc(OCC(=O)O)cc1)c1ccccc1 [4-HTA, (E,Z)-2-{4-[1-(p-hydroxyphenyl)-2-phenyl]-1-butenyl}phenoxyacetic acid] | 0.0 | 21 | not a substrate |  | both compounds reverse the growth inhibitory effect; also recorded: reversed in a dose dependent manner | Neither tamoxifen acid nor 4-HTA inhibits the growth; also recorded: no effect on proliferation | estrogen receptor affinity as percent of that of estradiol (estrogen receptor; [3H]estradiol, uterine cytosol from immature rats, FIG. 2): 21%; maximal level of MCF 7 growth stimulation compared with estradiol (MCF 7 cells): stimulated growth to the same level as did estradiol; stimulation of MCF 7 cell growth (MCF 7 cells; submicromolar concentrations): dose dependent stimulation of growth; urinary elimination form ([3]; immature female rat): eliminated unchanged in the urine; presence in uterine or ovarian tissue ([3]; immature female rat, after [14C]TAM): not detected in uterine or ovarian tissue
6 | CC/C(=C(\c1ccccc1)c1ccc(OCCN(C)C)cc1)c1ccccc1 [TAM, (Z)-2-[4-(1,2-diphenyl-1-butenyl)phenoxy]-N,N-dimethylethanamine] |  |  |  |  |  | potent inhibitor of cell growth | Percent of Dose Present as: Total 14C ([3]; feces, 0-24 hr after dosing): 30.49%; Percent of Dose Present as: Total 14C ([3]; feces, 24-48 hr after dosing): 16.05%; Percent of Dose Present as: Total 14C ([3]; liver, 24 hr after dosing): 20.25%; Percent of Dose Present as: Total 14C ([3]; liver, 48 hr after dosing): 2.84%; Percent of Dose Present as: Total 14C ([3]; urine, 0-24 hr after dosing): 8.70%; Percent of Dose Present as: Total 14C ([3]; uterus, 24 hr after dosing): 0.12%
